Assays:
B. subtilis 168 [1] = assay: fitness (endpoint OD595 vs no drug) (fraction); higher = more growth
Method in brief: (§1)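 Growth medium was TSB, LB Lennox or CY, and plates were kept at 37 °C. Inoculation was at OD595 0.01 in 384-well plates, at 30 µl per well or 55 µl for S. pneumoniae. OD595 was monitored every 30 min for 14 h and background-subtracted using the first reading. Fitness is the optical density on entering stationary phase divided by the robust mean of no-drug controls, with values capped at 1.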

S. aureus DSM 20231 [2] = assay: as above
Method in brief: as §1

S. aureus Newman [3] = assay: as above
Method in brief: as §1

S. pneumoniae D39V [4] = assay: as above
Method in brief: as §1

B. subtilis 168 [5] = assay: Bliss interaction score (quartile over a dose matrix) (fitness difference); higher = more antagonism (negative = synergy)
Method in brief: (§2)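 The Bliss score is observed fitness minus expected fitness, where the expected value is the product of single-drug fitness values inferred from combination data. Fitness is OD595 at entry into stationary phase normalised to the plate's robust no-drug mean and capped at 1. Scores are reported as quartiles spanning technical, biological and donor/recipient replicates.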

S. aureus DSM 20231 [6] = assay: as above
Method in brief: as §2

S. aureus Newman [7] = assay: as above
Method in brief: as §2

S. pneumoniae D39V [8] = assay: as above
Method in brief: as §2
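Wherever Bliss interaction score (quartile over a dose matrix) is given: first quartile when negative (synergy) and third quartile when positive (antagonism).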
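Wherever fitness (endpoint OD595 vs no drug) is given: OD595 on entry to stationary phase over no-drug wells; at most 1.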

Cc1onc(-c2ccccc2)c1C(=O)N[C@@H]1C(=O)N2[C@@H]1SC(C)(C)[C@@H]2C(=O)O [Oxacillin] + COc1ccc(C[C@H](N)C(=O)N[C@H]2[C@@H](O)[C@H](n3cnc4c(N(C)C)ncnc43)O[C@@H]2CO)cc1 [Puromycin]
Details	fitness
B. subtilis 168 [1], first compound 0.002 µg/mL, partner 0.39 µg/mL	0.98
B. subtilis 168 [1], first compound 0.002 µg/mL, partner 0.78 µg/mL	0.966
B. subtilis 168 [1], first compound 0.002 µg/mL, partner 1.56 µg/mL	0.932
B. subtilis 168 [1], first compound 0.004 µg/mL, partner 0.39 µg/mL	0.974
B. subtilis 168 [1], first compound 0.004 µg/mL, partner 0.78 µg/mL	0.914
B. subtilis 168 [1], first compound 0.004 µg/mL, partner 1.56 µg/mL	0.9
B. subtilis 168 [1], first compound 0.008 µg/mL, partner 0.39 µg/mL	0.88
B. subtilis 168 [1], first compound 0.008 µg/mL, partner 0.78 µg/mL	0.879
B. subtilis 168 [1], first compound 0.008 µg/mL, partner 1.56 µg/mL	0.864
S. aureus DSM 20231 [2], first compound 0.0156 µg/mL, partner 0.39 µg/mL	0.84
S. aureus DSM 20231 [2], first compound 0.0156 µg/mL, partner 0.78 µg/mL	0.902
S. aureus DSM 20231 [2], first compound 0.0156 µg/mL, partner 1.56 µg/mL	0.91
S. aureus DSM 20231 [2], first compound 0.0312 µg/mL, partner 0.39 µg/mL	0.72
S. aureus DSM 20231 [2], first compound 0.0312 µg/mL, partner 0.78 µg/mL	0.737
S. aureus DSM 20231 [2], first compound 0.0312 µg/mL, partner 1.56 µg/mL	0.748
S. aureus DSM 20231 [2], first compound 0.0625 µg/mL, partner 0.39 µg/mL	0.481
S. aureus DSM 20231 [2], first compound 0.0625 µg/mL, partner 0.78 µg/mL	0.555
S. aureus DSM 20231 [2], first compound 0.0625 µg/mL, partner 1.56 µg/mL	0.546
S. aureus Newman [3], first compound 0.0156 µg/mL, partner 0.78 µg/mL	0.85
S. aureus Newman [3], first compound 0.0156 µg/mL, partner 1.56 µg/mL	0.806
S. aureus Newman [3], first compound 0.0312 µg/mL, partner 0.39 µg/mL	0.765
S. aureus Newman [3], first compound 0.0312 µg/mL, partner 0.78 µg/mL	0.788
S. pneumoniae D39V [4], first compound 0.01 µg/mL, partner 1 µg/mL	≥ 1
S. pneumoniae D39V [4], first compound 0.01 µg/mL, partner 2 µg/mL	0.969
S. pneumoniae D39V [4], first compound 0.01 µg/mL, partner 4 µg/mL	0.918
S. pneumoniae D39V [4], first compound 0.02 µg/mL, partner 1 µg/mL	0.984
S. pneumoniae D39V [4], first compound 0.02 µg/mL, partner 2 µg/mL	0.949
S. pneumoniae D39V [4], first compound 0.02 µg/mL, partner 4 µg/mL	0.863
S. pneumoniae D39V [4], first compound 0.04 µg/mL, partner 1 µg/mL	0.668
S. pneumoniae D39V [4], first compound 0.04 µg/mL, partner 2 µg/mL	0.644
S. pneumoniae D39V [4], first compound 0.04 µg/mL, partner 4 µg/mL	0.281

fitness, one replicate
Details	first compound 0.0156 µg/mL	first compound 0.0312 µg/mL	first compound 0.0625 µg/mL	first compound 0.075 µg/mL	first compound 0.15 µg/mL	first compound 0.3 µg/mL
B. subtilis 168 [1], partner 0.39 µg/mL	–	–	–	0.523	0.0695	0.0402
B. subtilis 168 [1], partner 0.78 µg/mL	–	–	–	0.645	0.0521	0.0336
B. subtilis 168 [1], partner 1.56 µg/mL	–	–	–	0.632	0.0547	0.0573
S. aureus DSM 20231 [2], partner 3.12 µg/mL	0.887	0.788	0.66	–	–	–
S. aureus DSM 20231 [2], partner 6.24 µg/mL	0.609	0.606	0.548	–	–	–

Details	Bliss interaction score
B. subtilis 168 [5]	0.0568
S. aureus DSM 20231 [6]	0.0572
S. aureus Newman [7]	0.0763
S. pneumoniae D39V [8]	0.167

Cc1onc(-c2ccccc2)c1C(=O)N[C@@H]1C(=O)N2[C@@H]1SC(C)(C)[C@@H]2C(=O)O [Oxacillin] + C[n+]1ccc(-c2cc[n+](C)cc2)cc1 [Paraquat]
Details	fitness
B. subtilis 168 [1], first compound 0.002 µg/mL, partner 1.25 µg/mL	0.964
B. subtilis 168 [1], first compound 0.002 µg/mL, partner 2.5 µg/mL	0.922
B. subtilis 168 [1], first compound 0.002 µg/mL, partner 5 µg/mL	0.725
B. subtilis 168 [1], first compound 0.004 µg/mL, partner 1.25 µg/mL	0.917
B. subtilis 168 [1], first compound 0.004 µg/mL, partner 2.5 µg/mL	0.864
B. subtilis 168 [1], first compound 0.004 µg/mL, partner 5 µg/mL	0.747
B. subtilis 168 [1], first compound 0.008 µg/mL, partner 1.25 µg/mL	0.861
B. subtilis 168 [1], first compound 0.008 µg/mL, partner 2.5 µg/mL	0.836
B. subtilis 168 [1], first compound 0.008 µg/mL, partner 5 µg/mL	0.665
S. aureus DSM 20231 [2], first compound 0.0156 µg/mL, partner 1.25 µg/mL	0.909
S. aureus DSM 20231 [2], first compound 0.0156 µg/mL, partner 2.5 µg/mL	0.892
S. aureus DSM 20231 [2], first compound 0.0156 µg/mL, partner 5 µg/mL	0.865
S. aureus DSM 20231 [2], first compound 0.0312 µg/mL, partner 1.25 µg/mL	0.704
S. aureus DSM 20231 [2], first compound 0.0312 µg/mL, partner 2.5 µg/mL	0.688
S. aureus DSM 20231 [2], first compound 0.0312 µg/mL, partner 5 µg/mL	0.63
S. aureus DSM 20231 [2], first compound 0.0625 µg/mL, partner 1.25 µg/mL	0.466
S. aureus DSM 20231 [2], first compound 0.0625 µg/mL, partner 2.5 µg/mL	0.599
S. aureus DSM 20231 [2], first compound 0.0625 µg/mL, partner 5 µg/mL	0.498
S. aureus Newman [3], first compound 0.0156 µg/mL, partner 1.25 µg/mL	0.792
S. aureus Newman [3], first compound 0.0156 µg/mL, partner 2.5 µg/mL	0.779
S. aureus Newman [3], first compound 0.0156 µg/mL, partner 5 µg/mL	0.795
S. aureus Newman [3], first compound 0.0312 µg/mL, partner 2.5 µg/mL	0.688
S. aureus Newman [3], first compound 0.0312 µg/mL, partner 5 µg/mL	0.687
S. aureus Newman [3], first compound 0.0625 µg/mL, partner 2.5 µg/mL	0.604
S. aureus Newman [3], first compound 0.0625 µg/mL, partner 5 µg/mL	0.587
S. pneumoniae D39V [4], first compound 0.01 µg/mL, partner 1.5 µg/mL	0.986
S. pneumoniae D39V [4], first compound 0.01 µg/mL, partner 3 µg/mL	0.986
S. pneumoniae D39V [4], first compound 0.01 µg/mL, partner 6 µg/mL	0.96
S. pneumoniae D39V [4], first compound 0.02 µg/mL, partner 1.5 µg/mL	0.939
S. pneumoniae D39V [4], first compound 0.02 µg/mL, partner 3 µg/mL	0.961
S. pneumoniae D39V [4], first compound 0.02 µg/mL, partner 6 µg/mL	0.928
S. pneumoniae D39V [4], first compound 0.04 µg/mL, partner 3 µg/mL	0.538
S. pneumoniae D39V [4], first compound 0.04 µg/mL, partner 6 µg/mL	0.483

fitness, B. subtilis 168 [1], one replicate
Details	first compound 0.075 µg/mL	first compound 0.15 µg/mL	first compound 0.3 µg/mL
partner 1.25 µg/mL	0.512	0.0497	0.0541
partner 2.5 µg/mL	0.326	0.054	0.0573
partner 5 µg/mL	0.0786	0.0366	0.0407

Details	Bliss interaction score
B. subtilis 168 [5]	-0.0872
S. aureus DSM 20231 [6]	-0.0577
S. aureus Newman [7]	-0.0522
S. pneumoniae D39V [8]	0.0963

From the supplement of paper PMC10627819
